# Measured values published in patent US10294202B2, “Pyrrolidinones as herbicides” (FMC Corporation, priority 2013, dated 2019).
# Experiments:
# corn [1] = assay: Test C pre-/postemergence herbicide test; type: in vivo, Zea mays
# Summary of the method: (§1)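 Test compounds, formulated in a surfactant-containing non-phytotoxic solvent blend, are applied to seeded loam/sand soil (preemergence) and to young plants at the 1- to 4-leaf stage in peat-based medium (postemergence). Plants stay 13 to 15 days under greenhouse conditions, then are scored visually relative to controls, 0 = no effect, 100 = complete control.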
# galium = assay: Test C pre-/postemergence herbicide test; type: in vivo, Galium aparine
# Summary of the method: as §1
# ragweed = assay: Test C pre-/postemergence herbicide test; type: in vivo, Ambrosia elatior
# Summary of the method: as §1
# sedge, umbrella = assay: Test B flooded paddy test; type: in vivo, Cyperus difformis; settings: 500 g ai/ha, Flood; scale of 0 to 100 where 0 is no effect and 100 is complete control
# Summary of the method: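 2-leaf plants; flood 3 cm over soil; compound into paddy water; depth held. Greenhouse 13–15 d. Visual rating vs controls, 0 (no effect) to 100 (complete control); dash = not tested.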
# soybean = assay: Test C pre-/postemergence herbicide test; type: in vivo, Glycine max
# Summary of the method: as §1
# barnyardgrass = assay: Test A pre-/postemergence herbicide test; type: in vivo, Echinochloa crus-galli
# Summary of the method: (§2)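 Planted in loam–sand blend; treated the same day preemergence by directed soil spray, while separately grown plants at one- to two-leaf stage got postemergence spray. Compared visually with untreated controls after approximately 10 days; 100 means complete control.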
# oat, wild = assay: Test C pre-/postemergence herbicide test; type: in vivo, Avena fatua; settings: Postemergence
# Summary of the method: as §1
# pigweed = assay: Test A pre-/postemergence herbicide test; type: in vivo, Amaranthus retroflexus
# Summary of the method: as §2
# foxtail, giant = assay: Test C pre-/postemergence herbicide test; type: in vivo, Setaria faberii
# Summary of the method: as §1
# ryegrass, Italian = assay: Test C pre-/postemergence herbicide test; type: in vivo, Lolium multiflorum
# Summary of the method: as §1
# corn [2] = assay: Test A pre-/postemergence herbicide test; type: in vivo, Zea mays; settings: Postemergence
# Summary of the method: as §2
# [3] = Postemergence, 31 g ai/ha, scale 0 to 100 (0 no effect, 100 complete control)
# [4] = Postemergence, 62 g ai/ha, scale 0 (no effect) to 100 (complete control)
# [5] = Postemergence, 125 g ai/ha, scale 0 to 100 (0 no effect, 100 complete control)
# [6] = Postemergence, 250 g ai/ha, scale 0 to 100 (0 no effect, 100 complete control)
# [7] = Preemergence, 31 g ai/ha, scale 0 to 100, 0 is no effect and 100 is complete control
# [8] = Preemergence, 62 g ai/ha, scale 0 to 100 (0 no effect, 100 complete control)
# [9] = Preemergence, 125 g ai/ha, scale 0 to 100 (0 no effect, 100 complete control)
# [10] = Postemergence, 125 g ai/ha, visual rating on 0 to 100 scale (0 no effect, 100 complete control), approx. 10 days
# [11] = Postemergence, 500 g ai/ha, 0 to 100 scale (0 no effect, 100 complete control)
# [12] = Preemergence, 125 g ai/ha, 0 to 100 scale where 0 is no effect and 100 is complete control
# [13] = Preemergence, 500 g ai/ha, visual rating on 0 to 100 scale (0 no effect, 100 complete control)
smiles,measurement,setting,value
CN1CC(c2ccc(F)c(F)c2)C(C(=O)Nc2ccccc2F)C1=O (stereo not drawn) [Compound 302],"Plant response rating, Corn",corn [1]; [3],0
same,"Plant response rating, Corn",corn [1]; [4],0
same,"Plant response rating, Corn",corn [1]; [5],0
same,"Plant response rating, Corn",corn [1]; [6],0
same,Corn plant response rating,corn [1]; [7],0
same,Corn plant response rating,corn [1]; [8],0
same,"Plant response rating, Corn",corn [1]; [9],0
same,"Plant response rating (scale of 0 to 100), Corn","corn [1]; Preemergence, 250 g ai/ha",50
same,"Plant response rating, Galium",galium; [3],10
same,"Plant response rating, Galium",galium; [4],15
same,"Plant response rating, Galium",galium; [5],10
same,"Plant response rating, Galium",galium; [6],45
same,Galium plant response rating,galium; [7],0
same,Galium plant response rating,galium; [8],5
same,"Plant response rating, Galium",galium; [9],85
same,"Plant response rating (scale of 0 to 100), Galium","galium; Preemergence, 250 g ai/ha",85
same,"Plant response rating, Ragweed",ragweed; [3],10
same,"Plant response rating, Ragweed",ragweed; [4],20
same,"Plant response rating, Ragweed",ragweed; [5],20
same,"Plant response rating, Ragweed",ragweed; [6],55
same,Ragweed plant response rating,ragweed; [7],35
same,Ragweed plant response rating,ragweed; [8],5
same,"Plant response rating, Ragweed",ragweed; [9],5
same,"Plant response rating (scale of 0 to 100), Ragweed","ragweed; Preemergence, 250 g ai/ha",10
same,"Plant response rating, Sedge, Umbrella","sedge, umbrella",0
same,"Plant response rating, Soybean",soybean; [3],0
same,"Plant response rating, Soybean",soybean; [4],0
same,"Plant response rating, Soybean",soybean; [5],0
same,"Plant response rating, Soybean",soybean; [6],65
same,Soybean plant response rating,soybean; [7],0
same,Soybean plant response rating,soybean; [8],30
same,"Plant response rating, Soybean",soybean; [9],0
same,"Plant response rating (scale of 0 to 100), Soybean","soybean; Preemergence, 250 g ai/ha",0
same,"Plant response rating, Barnyardgrass",barnyardgrass; [10],90
same,"Plant response rating, Barnyardgrass",barnyardgrass; [11],90
same,"Plant response rating, Barnyardgrass",barnyardgrass; [12],90
same,Barnyardgrass plant response rating,barnyardgrass; [13],90
same,"Plant response rating, Oat, Wild","oat, wild; 31 g ai/ha, scale 0 to 100 (0 no effect, 100 complete control)",0
same,"Plant response rating, Oat, Wild","oat, wild; 62 g ai/ha, scale 0 (no effect) to 100 (complete control)",0
same,"Plant response rating, Oat, Wild","oat, wild; 125 g ai/ha, scale 0 to 100 (0 no effect, 100 complete control)",0
same,"Plant response rating, Oat, Wild","oat, wild; 250 g ai/ha, scale 0 to 100 (0 no effect, 100 complete control)",0
same,"Plant response rating, Pigweed",pigweed; [10],0
same,"Plant response rating, Pigweed",pigweed; [11],10
same,"Plant response rating, Pigweed",pigweed; [12],10
same,Pigweed plant response rating,pigweed; [13],60
same,"Plant response rating, Foxtail, Giant","foxtail, giant; [3]",0
same,"Plant response rating, Foxtail, Giant","foxtail, giant; [4]",45
same,"Plant response rating, Foxtail, Giant","foxtail, giant; [5]",80
same,"Plant response rating, Foxtail, Giant","foxtail, giant; [6]",80
same,"Foxtail, Giant plant response rating","foxtail, giant; [7]",90
same,"Foxtail, Giant plant response rating","foxtail, giant; [8]",95
same,"Plant response rating, Foxtail, Giant","foxtail, giant; [9]",100
same,"Plant response rating (scale of 0 to 100), Foxtail, Giant","foxtail, giant; Preemergence, 250 g ai/ha",100
same,"Plant response rating, Ryegrass, Italian","ryegrass, Italian; [3]",0
same,"Plant response rating, Ryegrass, Italian","ryegrass, Italian; [4]",0
same,"Plant response rating, Ryegrass, Italian","ryegrass, Italian; [5]",0
same,"Plant response rating, Ryegrass, Italian","ryegrass, Italian; [6]",0
same,"Ryegrass, Italian plant response rating","ryegrass, Italian; [7]",0
same,"Ryegrass, Italian plant response rating","ryegrass, Italian; [8]",0
same,"Plant response rating, Ryegrass, Italian","ryegrass, Italian; [9]",5
same,"Plant response rating (scale of 0 to 100), Ryegrass, Italian","ryegrass, Italian; Preemergence, 250 g ai/ha",40
same,"Plant response rating, Corn","corn [2]; 125 g ai/ha, visual rating on 0 to 100 scale (0 no effect, 100 complete control), approx. 10 days",0
same,"Plant response rating, Corn","corn [2]; 500 g ai/ha, 0 to 100 scale (0 no effect, 100 complete control)",40
